Reference: patent US20140011755A1, “Cardiac Glycosides for Treating Autoimmune Disease” (Department of Veterans Affairs, priority 2010, published 2014)
Entries after “also recorded” stand apart in the source; their conditions may differ. Read-outs that look alike come from different tables or passages of the source.

What was measured:
[1] = test system: TNF-mediated NFκB activity in HeLa cells; experiment: NFκB luciferase reporter assay in TNF-stimulated HeLa cells; type: cell-based; settings: pre-treatment 6 hours with 0-500 nM, 50 ng/mL TNF
Method: FIG. 8. […] Values represent mean light units produced. Error bars represent SEM, and statistical significance was determined by unpaired T-test. Single and double asterisks represent P-values of 0.01 or 0.001, respectively. […] Samples were harvested at designated time points and were fractionated into nuclear and cytoplasmic lysates (Pierce). Lysates were quantified using BCA (Pierce), and were equally loaded according to total protein. Membranes were probed for levels of nuclear phospho-p65 (ReIA), phospho-ReIB, and histone (histone served as loading control and fractionation method control) and cytoplasmic degradation of IκBα (beta-tubulin served as loading control and fractionation method control).
HeLa cells were co-transfected with the reporter pNFκB-luc and control vector pTAL (Renilla) for 18 h prior to incubation with 0-500 nM cardiac glycoside for 6 h. Cells are stimulated with 50 ng/mL TNF. […] FIG. 8 B).

TNF, IL-6 and IL-1beta = experiment: Serum cytokine ELISA in CIA treatment groups; type: in vivo; settings: serum from 3 mice per treatment group, ELISA in triplicate
Description: FIG. 9. Serum cytokine levels are similar between vehicle and cardiac glycoside treatment groups. […] The unpaired student t-test was used to assess significance.

[2] = test system: collagen-induced arthritis (CIA); type: in vivo, DBA1/J mice; settings: for average clinical arthritis scores compared to vehicle, prevention study: first dose one day prior to boost, 0.3 mg/kg digitoxin, 0.03 mg/kg ouabain, […] proscillaridin, 0.35 mg/kg digoxin, […] bufalin, 15 mice per group
[3] = cited from earlier work; for Half-life: in vivo; for Onset (m): onset of action; for Peak: time to maximal effect
T cell receptor = type: cell-based, mice
Method: (§1) Activity was monitored by ^3H-thymidine incorporation as a read-out for proliferation. […] Cell type(s) in the splenocyte population responsive to therapeutic concentrations of cardiac glycoside were determined by identifying the population of cells that responded to a dose-dependent decrease in activity in the presence of stimulant, defined as ligand(s) binding to cognate receptor(s). Activity was analyzed by: ^3H-thymidine or BrdU incorporation to monitor proliferation or by ELISA to monitor cytokine production. Splenic T lymphocytes were isolated by negative selection (MACS, Miltinyi Biotec) and are stimulated with PMA, ConA or through the TCR with anti-CD3/anti-CD28 Dynabeads (Invitrogen) and collagen II (all non-TNFR receptors/pathways). […] Peritoneal and bone marrow-derived macrophages were isolated from CIA mice in the presence of M-CSF growth factor and were stimulated with TNF and CD40 ligand (CD40L). […] Splenic B lymphocytes were isolated by negative selection (MACS, Miltinyi Biotec) and were stimulated with BAFF (BLyS), CD40L or through the BCR with anti-IgM u-chain specific antibodies.

[4] = CHCI3/16% aqueous methanol (MeOH); cited from earlier work
MRL-Ipr splenic B cells = experiment: ANA production by MRL-Ipr splenic B cells in vitro; type: cell-based, mice; settings: B cells pre-treated with 0.8 nM mifepristone, digitoxin 33 nM
rheumatoid arthritis = settings: cited from earlier work
CD40 = target: T1, CD40 (Mus musculus, UniProt P27512); type: cell-based, mice; settings: pre-treatment with 3.3 or 33 nM
T1 construct: Peritoneal and bone marrow-derived macrophages were isolated from CIA mice; endogenous in cells; host or cells: peritoneal and bone marrow-derived macrophages from CIA mice
T1 sequence (P27512 20-289): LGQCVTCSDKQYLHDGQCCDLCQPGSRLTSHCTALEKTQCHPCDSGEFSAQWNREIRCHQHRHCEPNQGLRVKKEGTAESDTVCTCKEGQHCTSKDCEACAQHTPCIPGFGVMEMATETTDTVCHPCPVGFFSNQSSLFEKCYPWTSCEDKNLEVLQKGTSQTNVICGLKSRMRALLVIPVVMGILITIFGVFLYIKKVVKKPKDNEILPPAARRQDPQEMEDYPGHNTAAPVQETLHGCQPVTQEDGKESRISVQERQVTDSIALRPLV
Method: as §1

TNFR = type: cell-based, mice; settings: pre-treatment with 3.3 or 33 nM
Method: as §1

[5] = injectable versus other formulations; cited from earlier work
[6] = test system: anti-type II collagen antibodies; type: in vivo; settings: sera of 6 mice per prevention group, ANOVA
Method: FIG. 10. Cardiac glycosides reduce immunoglobulin levels in CIA mice. ELISAs for anti-type II collagen antibodies were performed on sera derived from 6 representative mice of each prevention group (A, B). Isotype specific antibodies for IgG1 and IgG2a (A) and IgM (B) were utilized. […] Statistical analysis was performed using ANOVA and asterisks indicate points at which the P-values were less than 0.001.
The effects of the different cardiac glycoside treatments on CIA pathology was analyzed by histological scoring. Inflammatory cell infiltrate, synovial hyperplasia, pannus formation and articular cartilage and bone deterioration were evaluated in sectioned paws of treated mice at specific time-points throughout the disease course. Histopathology scores of inflammation, pannus formation and bone and cartilage erosions were conducted by a blinded investigator on toludine blue-stained cross sections of fixed leg joints from representative mice in vehicle and glycoside groups. Pathology scoring for each of the three categories are on a scale of 0-4 with grade 0=normal, 1=mild inflammation, hyperplasia of the synovial lining, cartilage destruction without bone erosion, grades 2 to 4=increasing degrees of inflammatory cell infiltrate, synovial hyperplasia, pannus formation and cartilage and bone destruction. Error bars represent SEM and statistics were performed using the Mann-Whitney test. At the endpoint, mice are bled and serum is collected from representative mice and stored at −80 C until use. To determine anti-collagen II antibody levels and to characterize isotype prevalence, bovine collagen II (Chondrex) was coated O/N at 4 C on an ELISA plate, washed and incubated with 100 uL of 1:10 dilution of each serum sample (in triplicate) for 2 h at RT. Wells were washed and incubated with anti-mouse IgM u-chain specific (Jackson), anti-mouse IgG1, or anti-mouse IgG2a (Southern Biotech) for 1 h at RT. The ELISA was developed and read using BD ELISA development kit. Statistical analysis was performed using the two-tailed ANOVA and asterisks represent P-values less than 0.01.

[7] = test system: collagen-induced arthritis (CIA) joints; type: in vivo, DBA1/J mice; settings: cross-sectioned ankle joints, CIA prevention groups
Method: FIG. 7. Cardiac glycosides reduce joint pathology in the CIA mouse model for rheumatoid arthritis. Blinded scoring was performed on histologic sections of joints harvested from mice at the end of a CIA prevention study (A-C). Joints derived from three representative mice belonging to each prevention group (A-C) were decalcified, fixed and stained with tolidine blue, followed by scoring by an examiner blinded to treatment status for the severity of synovitis (inflammation), pannus (growth of the synovial lining), and erosions of bone. (D-G) Joints derived from three representative mice belonging to each prevention group were decalcified, fixed, and stained with hematoxylin and eosin. Cross-sectioned ankle joints from vehicle (D), digitoxin (E), ouabain (F) and proscillaridin (G) treated mice are presented. Error bars represent SEM, and asterisks indicate P-values less than 0.05 by Mann-Whitney test.
In treatment studies, mice were randomly enrolled in treatment groups and treatment commenced when the average clinical score was at or above 2. […] Daily dosing commenced upon enrollment at the abovementioned concentrations. […] Double-blinded histopathology scoring was conducted of cross-sectioned joints taken from cardiac glycoside and vehicle recipients. […] The results obtained from these animal studies indicate that cardiac glycosides are effective at reducing the clinical manifestations of disease and reducing joint pathology in mice with collagen arthritis.
The effects of the different cardiac glycoside treatments on CIA pathology was analyzed by histological scoring. Inflammatory cell infiltrate, synovial hyperplasia, pannus formation and articular cartilage and bone deterioration were evaluated in sectioned paws of treated mice at specific time-points throughout the disease course. […] The ELISA was developed and read using BD ELISA development kit. […]

[8] = Serum concentration obtained with experimental dosing regimen, mouse; type: in vivo; settings: 0.2 mg/kg per diem, i.p., experimentally determined
Method: Dosing regimens in humans vary according to the cardiac glycoside and constitution thereof. Table 3 depicts representative dosing regimens reported in the literature compared to experimental regiments used in mice that are representative of human dosing. Successful dosing detailed in this application includes but is not limited to 0.03-0.4 mg/kg., or from 0.001 to 5 mg/kg.

C[C@]12CC[C@H](O)C[C@H]1CC[C@@H]1[C@@H]2CC[C@]2(C)[C@@H](c3ccc(=O)oc3)CC[C@]12O [bufalin]
TNF-mediated NFκB activation (luciferase light units) [1]: reduced TNF-mediated NFκB activation in a dose-dependent fashion | Serum cytokine levels (TNF, IL-6 and IL-1beta) versus vehicle (TNF, IL-6 and IL-1beta): similar | average clinical arthritis scores compared to vehicle, prevention study [2]: significantly reduced

C[C@H]1O[C@@H](O[C@H]2[C@@H](O)C[C@H](O[C@H]3[C@@H](O)C[C@H](O[C@H]4CC[C@@]5(C)[C@H](CC[C@@H]6[C@@H]5C[C@@H](O)[C@]5(C)[C@@H](C7=CC(=O)OC7)CC[C@]65O)C4)O[C@@H]3C)O[C@@H]2C)C[C@H](O)[C@@H]1O [Digoxin, digoxin]
Half-life [3]: 36 h | TNF-mediated NFκB activation (luciferase light units) [1]: reduced TNF-mediated NFκB activation in a dose-dependent fashion | proliferation of T cells in response to stimulation through the T cell receptor (T cell receptor): did not alter proliferation | Partition Coefficient [4]: 81.5 | Serum cytokine levels (TNF, IL-6 and IL-1beta) versus vehicle (TNF, IL-6 and IL-1beta): similar | average clinical arthritis scores compared to vehicle, prevention study [2]: significantly reduced

C[C@H]1O[C@@H](O[C@H]2CC[C@@]3(C)[C@H](CC[C@@H]4[C@@H]3C[C@@H](O)[C@]3(C)[C@@H](C5=CC(=O)OC5)CC[C@]43O)C2)C[C@H](O)[C@@H]1O[C@H]1C[C@H](O)[C@H](O[C@H]2C[C@H](O)[C@H](O[C@@H]3O[C@H](CO)[C@@H](O)[C@H](O)[C@H]3O)[C@@H](C)O2)[C@@H](C)O1 [Deslanoside]
Half-life [3]: 33 h | Onset (m) [3]: 10-30 m | Peak [3]: 1 to 2 h

CC#C[C@]1(O)CC[C@H]2[C@@H]3CCC4=CC(=O)CCC4=C3[C@@H](c3ccc(N(C)C)cc3)C[C@@]21C [mifepristone]
effect of pre-treatment on digitoxin-specific blockade of autoantibody production (MRL-Ipr splenic B cells): relieved

CN(Cc1cnc2nc(N)nc(N)c2n1)c1ccc(C(=O)N[C@@H](CCC(=O)O)C(=O)O)cc1 [Methotrexate]
patients having some response (rheumatoid arthritis): 70% | onset of action (rheumatoid arthritis; rheumatoid arthritis patients): 4-6 weeks

CC(=O)O[C@H]1C[C@H](O[C@H]2[C@@H](O)C[C@H](O[C@H]3[C@@H](O)C[C@H](O[C@H]4CC[C@@]5(C)[C@H](CC[C@@H]6[C@@H]5C[C@@H](O)[C@]5(C)[C@@H](C7=CC(=O)OC7)CC[C@]65O)C4)O[C@@H]3C)O[C@@H]2C)O[C@H](C)[C@H]1O[C@@H]1O[C@H](CO)[C@@H](O)[C@H](O)[C@H]1O [Lanatoside C]
Partition Coefficient [4]: 16.2

C[C@@H]1O[C@@H](O[C@H]2C[C@@H](O)[C@]3(CO)[C@H]4[C@H](O)C[C@]5(C)[C@@H](C6=CC(=O)OC6)CC[C@]5(O)[C@@H]4CC[C@]3(O)C2)[C@H](O)[C@H](O)[C@H]1O [Ouabain, ouabain]
Half-life [3]: 21 h | Onset (m) [3]: 5-10 m | Peak [3]: 0.5 to 2 h | TNF-mediated NFκB activation (luciferase light units) [1]: reduced TNF-mediated NFκB activation in a dose-dependent fashion | proliferation of T cells in response to stimulation through the T cell receptor (T cell receptor; non-TNFR family member, therapeutic concentrations): did not alter proliferation | CD40L-mediated activation of macrophage through CD40 (CD40): inhibits | TNF-mediated activation of macrophage through TNFR (TNFR): inhibits | bioavailability by formulation [5]: higher bioavailability with injectable formulations | Partition Coefficient [4]: very low | Serum cytokine levels (TNF, IL-6 and IL-1beta) versus vehicle (TNF, IL-6 and IL-1beta): similar | anti-type II collagen IgG1 level relative to vehicle [6]: reduced levels | anti-type II collagen IgM level relative to vehicle [6]: reduced levels | immune cell infiltrate into the joints (hematoxylin and eosin) [7]: decreased amounts of immune cell infiltrate | Serum conc. [8]: 16 ng/mL | disease and inflammation (clinical score, paw thickness), dosing every three days i.p. ([2]; 0.9 mg/kg digitoxin or 0.6 mg/kg ouabain, i.p., days −3, 0, 3, 6, 9, 12 after boost): significantly less disease and inflammation | onset of collagen arthritis, dosing every three days sublingual ([2]; 0.9 mg/kg digitoxin or 0.6 mg/kg ouabain, sublingual, days −3, 0, 3, 6, 9, 12 after boost): significantly inhibited the onset of collagen arthritis; also recorded: effective in preventing | development of CIA (Mean Visual Arthritis Score, Mean Paw Thickness), prevention study ([2]; daily i.p. from the day prior to induction, digitoxin 0.3 mg/kg, ouabain 0.03 mg/kg, proscillaridin […]): prevented the development of CIA | average clinical arthritis scores compared to vehicle, prevention study [2]: significantly reduced | prevention and treatment of collagen-induced arthritis (CIA) ([2]; murine model for rheumatoid arthritis, summary statement): potently prevent and treat
